Results published in US5948796A, “Benzo[B]thiophene compounds, intermediates, formulations, and methods” (Eli Lilly and Company, priority 1997, dated 1999).
Counter-ions that a name gives are not always drawn.

Tests used:
[1] = tested on: Eosinophil peroxidase; assay: Uterine Eosinophil Peroxidase (EPO) Assay in ovariectomized rats; format: in vivo, female Sprague Dawley rats; conditions: daily for 4 days, OVX rats, * p < 0.05
Description: (§1) In the examples illustrating the methods, a post-menopausal model was used in which effects of different treatments upon circulating lipids were determined.
(§2) Seventy-five day old female Sprague Dawley rats (weight range of 200 to 225 g) are obtained from Charles River Laboratories (Portage, Mich.). The animals are either bilaterally ovariectomized (OVX) or exposed to a Sham surgical procedure at Charles River Laboratories, and then shipped after one week. Upon arrival, they are housed in metal hanging cages in groups of 3 or 4 per cage and have ad libitum access to food (calcium content approximately 0.5%) and water for one week. Room temperature is maintained at 22.2°±1.7° C. with a minimum relative humidity of 40%. The photoperiod in the room is 12 hours light and 12 hours dark.
(§3) Dosing Regimen Tissue Collection. After a one week acclimation period (therefore, two weeks post-OVX) daily dosing with test compound is initiated. 17α-ethynyl estradiol or the test compound are given orally, unless otherwise stated, as a suspension in 1% carboxymethylcellulose or dissolved in 20% cyclodextrin. Animals are dosed daily for 4 days. Following the dosing regimen, animals are weighed and anesthetized with a ketamine: Xylazine (2:1, V:V) mixture and a blood sample is collected by cardiac puncture. The animals are then sacrificed by asphyxiation with CO2, the uterus is removed through a midline incision, and a wet uterine weight is determined.
Uterine Eosinophil Peroxidase (EPO) Assay. Uteri are kept at 4° C. until time of enzymatic analysis. The uteri are then homogenized in 50 volumes of 50 mM Tris buffer (pH-8.0) containing 0.005% Triton X-100. Upon addition of 0.01% hydrogen peroxide and 10 mM O-phenylenediamine (final concentrations) in Tris buffer, increase in absorbance is monitored for one minute at 450 nm. The presence of eosonophils in the uterus is an indication of estrogenic activity of a compound. The maximal velocity of a 15 second interval is determined over the initial, linear portion of the reaction curve.
(§4) In accordance with the above procedures, compounds of the present invention and ethynyl estradiol (EE2) in 20% hydroxypropyl β-cyclodextrin are orally administered to test animals.

[2] = tested on: ovariectomized (OVX) female Sprague Dawley rats, uterus; assay: Uterine weight in ovariectomized rats (post-menopausal model); format: in vivo; conditions: daily for 4 days, * p < 0.05
Description: as §1, §2, §3, §4

[3] = tested on: serum cholesterol; assay: Cholesterol Analysis (serum cholesterol in ovariectomized rats); format: in vivo, female Sprague Dawley rats; conditions: daily for 4 days, OVX rats, * p < 0.05
Description: as §1, §2, §3
Cholesterol Analysis. Blood samples are allowed to clot at ambient temperature for 2 hours, and serum is obtained following centrifugation for 10 minutes at 3000 rpm. Serum cholesterol is determined using a Boehringer Mannheim Diagnostics high performance cholesterol assay. Briefly, the cholesterol is oxidized to cholest-4-en-3-one and hydrogen peroxide. The hydrogen peroxide is then reacted with phenol and 4-aminophenazone in the presence of peroxidase to produce a p-quinone imine dye, which is read spectrophotemetrically at 500 nm. Cholesterol concentration is then calculated against a standard curve.
as §4

[4] = tested on: MCF-7 breast adenocarcinoma cells; assay: MCF-7 Proliferation Assay; format: cell-based; conditions: Homo sapiens, MCF7; MCF-7 cells; 48 hours; tritiated thymidine pulse 4 hours
Description: As evidence of the current invention treat estrogen dependent cancer, the following assay was performed.
MCF-7 Proliferation Assay
MCF-7 breast adenocarcinoma cells (ATCC HTB 22) were maintained in MEM (minimal essential medium, phenol red-free, Sigma, St. Louis, Mo.) supplemented with 10% fetal bovine serum (FBS) (V/V), L-glutamine (2 mM), sodium pyruvate (1 mM), HEPES {(N-[2-hydroxyethyl]piperazine-N'-[2-ethanesulfonic acid]10 mM}, non-essential amino acids and bovine insulin (1 ug/mL) (maintenance medium). Ten days prior to assay, MCF-7 cells were switched to maintenance medium supplemented with 10% dextran coated charcoal stripped fetal bovine serum (DCC-FBS) assay medium) in place of 10% FBS to deplete internal stores of steroids. MCF-7 cells were removed from maintenance flasks using cell dissociation medium [Ca++/Mg++ free HBSS (phenol red-free) supplemented with 10 mM HEPES and 2 mM EDTA]. Cells were washed twice with assay medium and adjusted to 80,000 cells/mL. Approximately […] (8,000 cells) were added to flat-bottom microculture wells (Costar 3596) and incubated at 37° C. in a 5% CO2 humidified incubator for 48 hours to allow for cell adherence and equilibration after transfer. […] Samples were counted by liquid scintillation using a Wallac BetaPlace β counter. […]

IC50 [4] | Structure (SMILES) | Uterine EPO (Vmax) ([1]; dose printed "0." mg/kg PO) | Uterine Wt. (% Inc.), % increase versus the ovariectomized controls ([2]; dose printed "0." mg/kg PO) | Serum Cholesterol (% Dec.), decrease versus ovariectomized controls ([3]; 0.1 mg/kg PO) | Serum Cholesterol (% Dec.), decrease versus ovariectomized controls ([3]; 1 mg/kg PO) | Serum Cholesterol (% Dec.), decrease versus ovariectomized controls ([3]; 10 mg/kg PO) | Uterine EPO (Vmax) ([1]; 0.1 mg/kg PO) | Uterine EPO (Vmax) ([1]; 1 mg/kg PO) | Uterine EPO (Vmax) ([1]; 10 mg/kg PO) | Uterine Wt. (% Inc.), % increase versus the ovariectomized controls ([2]; 0.1 mg/kg PO) | Uterine Wt. (% Inc.), % increase versus the ovariectomized controls ([2]; 1 mg/kg PO) | Uterine Wt. (% Inc.), % increase versus the ovariectomized controls ([2]; 10 mg/kg PO)
– | C#C[C@]1(O)CC[C@H]2[C@@H]3CCc4cc(O)ccc4[C@H]3CC[C@@]21C [EE2, 17α-ethynyl estradiol, reference compound] | 142.4 | 171.2% | – | – | – | – | – | – | – | – | –
500 nM | COc1ccc(-c2sc3cc(C)ccc3c2C(=O)c2ccc(OCCN3CCCCC3)cc2)cc1 [Example 1, [2-(4-Methoxyphenyl)-6-methylbenzo[b]thien-3-yl}[4-[2-(1-piperdinyl)ethoxy]phenyl]methanone Hydrochloride] | – | – | -20.3% | 17.2% | 34.8% | 1.4 | 1.6 | 5.2 | -11.4% | -4.6% | 2.1%
100 nM | Cc1ccc2c(C(=O)c3ccc(OCCN4CCCCC4)cc3)c(-c3ccc(O)cc3)sc2c1 [Example 2, [2-(4-Hydroxyphenyl)-6-methylbenzo[b]thien-3-yl}[4-[2-(1-piperdinyl)ethoxy]phenyl]methanone Hydrochloride] | – | – | 16.9% | 33.8% | 21.6% | 2.0 | 2.8 | 2.9 | -9.0% | 23.9% | 29.0%
